Test system: MAO
Test: not given
Conditions: background art; cited from earlier work

SMILES	selectivity and reversibility of MAO inhibition
Cc1cc(C(=O)NNCc2ccccc2)no1 [isocarboxazid]	non-selective, irreversible inhibitors
N[C@@H]1C[C@H]1c1ccccc1 (relative stereo) [tranylcypromine]	non-selective, irreversible inhibitors
NNCCc1ccccc1 [phenelzine]	non-selective, irreversible inhibitors

Biological target: T1, MAO-A (Rattus norvegicus, UniProt P21396)
T1 construct: mitochondrial extracts of rat brain; from tissue; host or cells: rat brain, mitochondrial extracts
T1 sequence (P21396 1-526): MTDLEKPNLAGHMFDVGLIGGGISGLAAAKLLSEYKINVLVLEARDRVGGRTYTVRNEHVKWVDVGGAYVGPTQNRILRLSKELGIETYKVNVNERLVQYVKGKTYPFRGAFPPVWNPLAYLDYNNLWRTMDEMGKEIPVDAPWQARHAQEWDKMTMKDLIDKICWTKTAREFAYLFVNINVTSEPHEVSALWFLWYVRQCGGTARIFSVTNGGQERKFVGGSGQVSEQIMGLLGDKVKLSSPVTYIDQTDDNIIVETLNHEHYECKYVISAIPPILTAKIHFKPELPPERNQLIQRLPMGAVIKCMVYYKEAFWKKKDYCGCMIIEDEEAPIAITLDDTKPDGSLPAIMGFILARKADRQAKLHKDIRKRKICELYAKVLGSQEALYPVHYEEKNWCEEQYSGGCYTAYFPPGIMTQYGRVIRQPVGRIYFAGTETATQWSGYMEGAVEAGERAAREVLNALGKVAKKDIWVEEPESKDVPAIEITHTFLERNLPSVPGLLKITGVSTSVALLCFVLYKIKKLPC
Test: MAO-A inhibition in mitochondrial extracts of rat brain (in vitro, double-label assay)
Type: biochemical
Conditions: [3H]serotonin 0.2 mM substrate
Description: MAO was assayed with [^3 H]serotonin (0.2 mM, 5 Ci/mole) and [^14 C]β-phenethylamine (10 μM, 3 Ci/mole) as substrates in a double-label assay (white and Glassman, J. Neurochem. 29:987-97 (1977)). Under these conditions, serotonin is selectively metabolized by MAO-A and β-phenethylamine by MAO-B. […]
Compounds of formula (I) produced a potent selective inhibition of MAO-A in mitochondrial extracts of rat brain, the IC50 s (concentration producing 50% inhibition) being shown in Table I. This inhibition was competitive vs. the substrates serotonin or tyramine.
The results are shown in Table 1 with the IC50 being the concentration providing 50% inhibition. No significant inhibition of MAO-B was found with these compounds.

IC50 [nM]	MAO-A Inhibition (rat brain) in vitro IC50	SMILES
2		CC(Oc1ccc2c(c1)Oc1ccccc1S2(=O)=O)C(F)(F)F (single isomer, unassigned) [Compound 29, (R*)-3-(2,2,2-trifluoro-1-methylethoxy)phenoxathiin-10,10-dioxide]
2		O=S1(=O)c2ccccc2Oc2cc(OC(CF)CF)ccc21 [Compound 23, 3-[2-fluoro-1-(fluoromethyl)ethoxy]phenoxathiin-10,10-dioxide]
8		O=S1(=O)c2ccccc2Oc2cc(OCC(F)(F)F)ccc21 [Compound 22, 3-(2,2,2-trifluoroethoxy)phenoxathiin 10,10-dioxide]
5		CC(Oc1ccc2c(c1)Oc1ccccc1S2(=O)=O)C(F)(F)F (racemic) [Compound 20, (rac)-3-(2,2,2-trifluoro-1-methylethoxy)phenoxathiin-10,10-dioxide]
55		CCCCCOc1ccc2c(c1)Oc1ccccc1S2(=O)=O [Compound 17, 3-(pentyloxy)phenoxathiin 10,10-dioxide]
14		CCC(C)Oc1ccc2c(c1)Oc1ccccc1S2(=O)=O (racemic) [Compound 13, (rac)-3-(1-methylpropoxy)phenoxathiin-10,10-dioxide]
2		CCOc1ccc2c(c1)Oc1ccccc1S2(=O)=O [Compound 2, 3-ethoxyphenoxathiin 10,10-dioxide]
4		CC[C@H](C)Oc1ccc2c(c1)Oc1ccccc1S2(=O)=O [Compound 7, (S)-3-(1-methylpropoxy)phenoxathiin 10,10-dioxide]
20		CC(CO)Oc1ccc2c(c1)Oc1ccccc1S2(=O)=O (racemic) [Compound 18, (rac)-2-(3-phenoxathiinyloxy)propanol S,S-dioxide]
20		COc1ccc2c(c1)Oc1ccccc1S2(=O)=O [Compound 14, 3-methoxyphenoxathiin 10,10-dioxide]
2.5		CCCOc1ccc2c(c1)Oc1ccccc1S2(=O)=O [Compound 3, 3-propoxyphenoxathiin 10,10-dioxide]
3.4		CC(C)Oc1ccc2c(c1)Oc1ccccc1S2(=O)=O [Compound 5, 3-isopropoxyphenoxathiin 10,10-dioxide]
4		CC[C@@H](C)Oc1ccc2c(c1)Oc1ccccc1S2(=O)=O [Compound 6, (R)-3-(1-methylpropoxy)phenoxathiin 10,10-dioxide]
70		C[C@@H](CO)Oc1ccc2c(c1)Oc1ccccc1S2(=O)=O [Compound 21, (S)-(+)-2-(3-phenoxathiinyloxy)propanol S,S-dioxide]
	active	CC(CF)Oc1ccc2c(c1)Oc1ccccc1S2(=O)=O (racemic) [Compound 27, (rac)-3-(1-(fluoromethyl)ethoxy)phenoxathiin-10,10-dioxide]
14		CC(Oc1ccc2c(c1)Oc1ccccc1S2(=O)=O)C(F)(F)F (single isomer, unassigned) [Compound 30, (S*)-3-(2,2,2-trifluoro-1-methylethoxy)phenoxathiin-10,10-dioxide]
1.8		CC(Oc1ccc2c(c1)Oc1ccccc1S2(=O)=O)C(F)F (racemic) [Compound 25, (rac)-3-(1-(difluoromethyl)ethoxy)phenoxathiin-10,10-dioxide]

The next lines start with the compound.

SMILES	IC50 [nM]	MAO-A Inhibition (rat brain) in vitro IC50
O=S1(=O)c2ccccc2Oc2cc(OC(CO)C(F)(F)F)ccc21 (racemic) [Compound 28, (rac)-2-(3-phenoxathiinyloxy)-2-(trifluoromethyl)ethanol-S,S-dioxide]	5	
O=S1(=O)c2ccc(F)cc2Oc2cc(OCC(F)(F)F)ccc21 [Compound 31, 3-fluoro-7-(2,2,2-trifluoroethoxy)phenoxathiin-10,10-dioxide]		active
O=S1(=O)c2ccccc2Oc2cc(OC(CF)C(F)(F)F)ccc21 (racemic) [Compound 26, (rac)-3-(2-fluoro-1-(trifluoromethyl)ethoxy)phenoxathiin-10,10-dioxide]		active
CC(C)Oc1ccc2c(c1)Oc1cc(F)ccc1S2(=O)=O [Compound 11, 7-fluoro-3-isopropoxyphenoxathiin 10,10-dioxide]	9	
CCCCOc1ccc2c(c1)Oc1ccccc1S2(=O)=O [Compound 8, 3-butoxyphenoxathiin 10,10-dioxide]	5	
CC(C)Oc1cc(F)c2c(c1)Oc1ccccc1S2(=O)=O [Compound 1, 1-fluoro-3-isopropoxyphenoxathiin 10,10-dioxide]	1.1	
CC(C)Oc1cc2c(cc1F)S(=O)(=O)c1ccc(F)cc1O2 [Compound 16, 2,7-difluoro-3-isopropoxyphenoxathiin 10,10-dioxide]	35	
CC(C)Oc1cc(F)c2c(c1)Oc1cc(F)ccc1S2(=O)=O [Compound 19, 1,7-difluoro-3-isopropoxyphenoxathiin 10,10-dioxide]	5	
O=S1(=O)c2ccccc2Oc2cc(OC(C(F)F)C(F)F)ccc21 [Compound 24, 3-(2,2-(difluoro)-1-(difluoromethyl)ethoxy)phenoxathiin-10,10-dioxide]	3.5	
CC(C)Oc1cc2c(cc1F)S(=O)(=O)c1ccccc1O2 [Compound 12, 2-fluoro-3-isopropoxyphenoxathiin 10,10-dioxide]	12	
CC(C)(C)Oc1ccc2c(c1)Oc1ccccc1S2(=O)=O [Compound 15, 3-tert-butoxyphenoxathiin 10,10-dioxide]	26	
CC(C)Oc1ccc2c(c1)Oc1cc(F)c(F)cc1S2(=O)=O [Compound 9, 7,8-difluoro-3-isopropoxyphenoxathiin-10,10-dioxide]	6	
CC(C)Oc1ccc2c(c1)Oc1cccc(F)c1S2(=O)=O [Compound 10, 9-fluoro-3-isopropoxyphenoxathiin 10,10-dioxide]	8	
CC(C)Oc1cc2c(c(F)c1F)S(=O)(=O)c1ccccc1O2 [Compound 4, 1,2-difluoro-3-isopropoxyphenoxathiin 10,10-dioxide]	3	

Test system: liver MAO-A
Test: not given
Conditions: single oral dose giving approximately 80% inhibition of brain MAO-A; 3 hours

SMILES	inhibition of liver MAO-A [%]
NNCCc1ccccc1 [phenelzine]	≥ 90
